In patent publication US9346753B2, “Dithiol mucolytic agents” (PARION SCIENCES, INC., priority 2013, dated 2016):
Counter-ions that a name gives are not always drawn.

Assay: DTNB assay: rate of disulfide bond reduction
Format: biochemical
Parameters: unit not given here
Details: 2nd order kinetic
Protocol: DTNB ASSAY: This assay determines the rate which a mucolytic agent can reduce a disulfide bond using 5,5-Dithiobis(2-nitrobenzoic acid). DTNB in various pH buffers and allows comparison of the kinetic rates of reducing agents. First, reducing agent stock solutions (30 mM) were made up in DMSO. Each compound stock solution was diluted, […] in 1 ml 50 mM Tris-HCl buffer, pH 7.5, and then added in a 1:1 volumetric ratio to a solution of 100 mM DTNB in 50 mM Tris-HCl buffer, pH 7.5. Max Abs412 was measured and then utilized to calculate the activity concentration. If the observed activity concentrations differed from expected activity concentrations by more than 5%, the volume was accordingly adjusted to kinetically test the rate in the next step. After having added the reducing agents, diluted in a range of pH buffer solutions (pH 6.0-7.5), to 45 mM DTNB in 50 mM Tris-HCl and measured the Abs412 for 5 min rates were calculated as a 2nd order kinetic.

| SMILES | Kinetic Reaction Rates of Reduction of DTNB (pH 6) | Kinetic Reaction Rates of Reduction of DTNB (pH 6.5) | Kinetic Reaction Rates of Reduction of DTNB (pH 7) | Kinetic Reaction Rates of Reduction of DTNB (pH 7.5) |
| --- | --- | --- | --- | --- |
| NCCOc1ccc(CS)c(CS)c1 [KK, (4-(2-aminoethoxy)-1,2-phenylene)dimethanethiol] | 873 | 2411 | 5163 | 13896 |
| N=C(N)NCCCC[C@H](N)C(=O)NCCCC[C@H](N)C(=O)NCCOc1cc(CS)c(CS)cc1OCCNC(=O)[C@@H](N)CCCCNC(=O)[C@@H](N)CCCCNC(=N)N [Y, (S,2S,2′S)-N,N′-(2,2′-(4,5-bis(mercaptomethyl)-1,2-phenylene)bis(oxy)bis(ethane-2,1-diyl))bis(2-amino-6-((S)-2-amino-6-guanidinohexanamido)hexanamide)] | 8718 |  |  |  |
| CN(C)CCOc1ccc(CS)c(CS)c1 [Q, (4-(2-(dimethylamino)ethoxy)-1,2-phenylene)dimethanethiol hydrochloride] | 954 | 2984 | 6077 | 15927 |
| CC(C)(C)OC(=O)NCCOc1ccc(CS)c(CS)c1 [I, tert-butyl 2-(3,4-bis(mercaptomethyl)phenoxy)ethylcarbamate] | 285 | 745 | 1916 | 7265 |
| N=C(N)NCCCC[C@H](N)C(=O)NCCCC[C@H](N)C(=O)NCCCC[C@H](N)C(=O)NCCOc1ccc(CS)c(CS)c1 [U, (S)-2-amino-6-((S)-2-amino-6-((S)-2-amino-6-guanidinohexanamido)hexanamido)-N-(2-(3,4-bis(mercaptomethyl)phenoxy)ethyl)hexanamide Hydrochloride] | 5761 |  |  |  |
| N=C(N)NCCCC[C@@H](N)C(=O)NCCOc1ccc(CS)c(CS)c1 [Compound B, (R)-2-amino-N-(2-(3,4-bis(mercaptomethyl)phenoxy)ethyl)-6-guanidinohexanamide Hydrochloride] | 1491 |  |  |  |
| N=C(N)NCCCC[C@H](N)C(=O)NCCOc1cc(CS)c(CS)cc1OCCNC(=O)[C@@H](N)CCCCNC(=N)N [H, (2S,2′S)-N,N′-(2,2′-(4,5-bis(mercaptomethyl)-1,2-phenylene)bis(oxy)bis(ethane-2,1-diyl))bis(2-amino-6-guanidinohexanamide) Hydrochloride] | 6835 |  |  |  |
| CC(=O)NCCCC[C@H](N)C(=O)NCCOc1ccc(CS)c(CS)c1 [Compound K, (S)-6-acetamido-2-amino-N-(2-(3,4-bis(mercaptomethyl)phenoxy)ethyl)hexanamide] | 678 | 1820 | 3775 | 9143 |
| CCCCCCN(CCOc1ccc(CS)c(CS)c1)C[C@H](O)[C@@H](O)[C@H](O)[C@H](O)CO [P, (2R,3R,4R,5S)-6-((2-(3,4-bis(mercaptomethyl)phenoxy)ethyl)(hexyl)amino)hexane-1,2,3,4,5-pentaol hydrochloride] | 1018 | 2701 | 6180 | 13243 |
| OC[C@@H](O)[C@@H](O)[C@H](O)[C@@H](O)CNCCOc1ccc(CS)c(CS)c1 [Compound O, (2R,3R,4R,5S)-6-(2-(3,4-bis(mercaptomethyl)phenoxy)ethylamino)hexane-1,2,3,4,5-pentaol hydrochloride] | 921 | 2500 | 5412 | 13547 |
| NCCCC[C@@H](N)C(=O)NCCOc1ccc(CS)c(CS)c1 [Compound V, (R)-2,6-diamino-N-(2-(3,4-bis(mercaptomethyl)phenoxy)ethyl)hexanamide Hydrochloride] | 1419 | 4568 | 6192 | 10043 |
| N=C(N)NCCCC[C@@H](N)C(=O)NCCCN(CCCNC(=O)[C@H](N)CCCCNC(=N)N)CCOc1ccc(CS)c(CS)c1 [Z, (2R,2′R)-N,N′-(3,3′-(2-(3,4-bis(mercaptomethyl)phenoxy)ethylazanediyl)bis(propane-3,1-diyl))bis(2-amino-6-guanidinohexanamide)] | 7200 | 10420 | 10631 | 18513 |
| N=C(NCCOc1ccc(CS)c(CS)c1)NC(=O)c1nc(Cl)c(N)nc1N [R, 3,5-diamino-N-(N-(2-(3,4-bis(mercaptomethyl)phenoxy)ethyl)carbamimidoyl)-6-chloropyrazine-2-carboxamide hydrochloride] | 2901 | 7382 | 13522 | 16870 |
| N=C(N)NCCCC[C@H](N)C(=O)NCCOc1ccc(CS)c(CS)c1 [C, (S)-2-amino-N-(2-(3,4-bis(mercaptomethyl)phenoxy)ethyl)-6-guanidinohexanamide] | 2460 | 7122 | 12313 | 17317 |
| O[C@H](CS)[C@H](O)CS (racemic) [DTT, dithiothreitol, reference compound] | 69 | 176 | 382 | 2088 |
| N=C(N)NCCCC[C@H](N)C(=O)NCCCC[C@H](N)C(=O)NCCOc1ccc(CS)c(CS)c1 [E, (S)-2-amino-N-((S)-5-amino-6-(2-(3,4-bis(mercaptomethyl)phenoxy)ethylamino)-6-oxohexyl)-6-guanidinohexanamide Hydrochloride] | 5933 | 13718 | 16393 | 17109 |
| NCCCC[C@H](N)C(=O)NCCOc1cc(CS)c(CS)cc1OCCNC(=O)[C@@H](N)CCCCN [Compound W, (2S,2′S)-N,N′-(2,2′-(4,5-bis(mercaptomethyl)-1,2-phenylene)bis(oxy)bis(ethane-2,1-diyl))bis(2,6-diaminohexanamide) Hydrochloride] | 4850 |  |  |  |
| NCCCC[C@H](N)C(=O)NCCOc1ccc(CS)c(CS)c1 [L, (S)-2,6-diamino-N-(2-(3,4-bis(mercaptomethyl)phenoxy)ethyl)hexanamide] | 1911 | 5565 | 8847 | 14566 |
| OC[C@@H](O)[C@@H](O)[C@H](O)[C@@H](O)CN(CCOc1ccc(CS)c(CS)c1)C[C@H](O)[C@@H](O)[C@H](O)[C@H](O)CO [N, (2R,2′R,3R,3′R,4R,4′R,5S,5'S)-6,6′-(2-(3,4-bis(mercaptomethyl)phenoxy)ethylazanediyl)dihexane-1,2,3,4,5-pentaol hydrochloride] | 952 | 2366 | 4382 | 9532 |
| N=C(N)NCCOc1ccc(CS)c(CS)c1 [LL, 1-(2-(3,4-bis(mercaptomethyl)phenoxy)ethyl)guanidine] | 743 | 2352 | 4661 | 8241 |
| NCCCC[C@H](N)C(=O)NCCCC[C@H](N)C(=O)NCCOc1cc(CS)c(CS)cc1OCCNC(=O)[C@@H](N)CCCCNC(=O)[C@@H](N)CCCCN [X, (S,2S,2′S)-N,N′-(2,2′-(4,5-bis(mercaptomethyl)-1,2-phenylene)bis(oxy)bis(ethane-2,1-diyl))bis(2-amino-6-((S)-2,6-diaminohexanamido)hexanamide)] | 8029 |  |  |  |
| NCCCC[C@H](N)C(=O)NCCCC[C@H](N)C(=O)NCCOc1ccc(CS)c(CS)c1 [S, (S)-2,6-diamino-N-((S)-5-amino-6-(2-(3,4-bis(mercaptomethyl)phenoxy)ethylamino)-6-oxohexyl)hexanamide] | 4483 | 10715 | 13732 | 15469 |
| NCCCC[C@H](N)C(=O)NCCCC[C@H](N)C(=O)NCCCC[C@H](N)C(=O)NCCOc1ccc(CS)c(CS)c1 [T, (S)-2,6-diamino-N-((S)-5-amino-6-((S)-5-amino-6-(2-(3,4-bis(mercaptomethyl)phenoxy)ethylamino)-6-oxohexylamino)-6-oxohexyl)hexanamide] | 5144 |  |  |  |
